Assay results: patent US4241074A, “Prostaglandin analogues” (Beecham Group Limited, priority 1978, dated 1980)

Columns and labels:
[1] = system: broncho-constriction induced by an histamine aerosol; assay: protection of conscious guinea-pigs against broncho-constriction induced by an histamine aerosol (Herxheimer test); format: in vivo, guinea-pig
Experimental: (b) The Compounds were also examined for their ability to protect conscious guinea-pigs against broncho-constriction induced by an histamine aerosol (Herxheimer test). The Compounds were administered by aerosol.
The aerosol was produced in the following manner.
Water soluble Compounds were dissolved in normal saline at a concentration of […]. Water insoluble Compounds were dissolved in ethanol at a concentration of 10 μg/ml. These solutions were then diluted to the test concentrations with normal saline.

[2] = system: indomethacin induced gastric ulceration; assay: inhibition of indomethacin induced gastric ulceration in the rat; format: in vivo
Source text: The compounds were examined for their ability to inhibit indomethacin induced gastric ulceration in the rat and the activities are shown in Table 2.

[3] = system: 5-hydroxytryptamine induced bronchoconstriction; assay: inhibition of 5-hydroxytryptamine induced bronchoconstriction in the anaesthetised, artificially respired guinea-pig (Konzett-Rossler preparation); format: in vivo; details: Cavia porcellus, iv, vs 5-hydroxytryptamine, read-out: Konzett-Rossler Test Ed50
Source text: (a) The Compounds were examined for their ability to inhibit 5-hydroxytryptamine induced bronchoconstriction in the anaesthetised, artificially respired guinea-pig (Konzett-Rossler preparation).

With `CCCCCCC(C)(O)CCN1C(=O)N(C)C(=O)C1CC#CCCCCC(C)=O` (stereo not shown) [Compound 6, 1-(3'-hydroxy-3'-methyl-n-nonyl)-3-methyl-5-(8"-oxo-non-2-ynyl) hydantoin] the “% Increase in pre-convulsive coughing time at a dose of 10 μg/ml” value (shortened to “% Increase”) ([1]; after 2 mins.) was 29% and the “% Increase” value ([1]; after 5 mins.) was 15%.
For `CCCCCCC(C)(O)CCN1C(=O)NC(=O)C1CCCCCCCC(C)=O` (stereo not shown) [Compound 8, 1-(3'-hydroxy-3'-methyl-n-nonyl)-5-(8"-oxo-n-nonyl) hydantoin], the “% Increase” value ([1]; after 2 mins.) was 81%.
With `CCCCCCC(C)(O)CCN1C(=O)N(C)C(=O)C1CCCCCCCC(C)=O` (stereo not shown) [Compound 1, 1-(3'-hydroxy-3'-methyl-n-nonyl)-3-methyl-5-(8"-oxo-n-nonyl) hydantoin] the “% Inhibition of Damage” value ([2]; 25 mg/kg p.o.) was 64%, the “% Inhibition of Damage” value ([2]; 50 mg/kg p.o.) was 74% and the “% Inhibition of Damage” value ([2]; 100 mg/kg p.o.) was 100%. It also gave an ED50 [3] of 1.4 µg/kg.
`CCCCCCC(C)(O)CCN1CN(C)C(=O)C1CCCCCCCC(C)=O` (stereo not shown) [Compound 3, 1-(3'-hydroxy-3'-methyl-n-nonyl)-3-methyl-5-(8"-oxo-n-nonyl)-4-imidazolidone] was tested, and the “% Inhibition of Damage” value ([2]; 100 mg/kg p.o.) was 65%.
In the case of `CC(=O)CCCCCCCC1C(=O)N(C)C(=O)N1CCC(C)(O)C1CCCCC1` (stereo not shown) [Compound 11, 1-(3'-hydroxy-3'-cyclohexyl-n-butyl)-3-methyl-5-(8"-oxo-n-nonyl) hydantoin], the “% Increase” value ([1]; after 2 mins.) was 140%, the “% Increase” value ([1]; after 5 mins.) was 23% and the ED50 [3] was 1 µg/kg.
`CCCCCCC(C)(O)CCN1C(=O)N(C)C(=O)C1CCCCCCC(C)=O` (stereo not shown) [Compound 9, 1-(3'-hydroxy-3'-methyl-n-nonyl)-3-methyl-5-(7"-oxo-n-octyl) hydantoin] was tested, and the ED50 [3] was 67.5 µg/kg.
For `CCCCCCC(C)(O)CCN1C(=S)N(C)C(=O)C1CCCCCCCC(C)=O` (stereo not shown) [Compound 2, 1-(3'-hydroxy-3'-methyl-n-nonyl)-3-methyl-5-(8"-oxo-n-nonyl)-2-thiohydantoin], the “% Inhibition of Damage” value ([2]; 100 mg/kg p.o.) was 100%.
